Each structure is given as a SMILES string.

One experiment has as its system camalexin. As to the kind of experiment: Camalexin quantification by LC-MS. Type of experiment: in vivo, Arabidopsis thaliana. Conditions: 100 μM, 24 h, 14-day-old Col-0 plants. On the procedure: For each treatment, camalexin was extracted from a pool of 14-day-old Arabidopsis. Briefly, 100 mg of ground-frozen samples were soaked using 80% (v:v) methanol in 1:1 (m/v) ratio. After homogenization, the supernatant was recovered through centrifugation at 17,000×g for 5 min and evaporated at 50° C. in nitrogen gas atmosphere. The residues were finally resuspended in high-performance LC-grade methanol and filtrated with 0.22-μm filters. Each pool was then analysed three times by LC-MS, using a reverse-phase LUNA® Omega 5 μm Polar C18 column (250×4.6 mm). The mobile phases were composed of 0.1% […] (solvent A) and acetonitrile (solvent B). The applied gradient was as follows: 0-2 min, 10% B; 2-13 min, 10-98% B; 13-23 min, 98% B; 23-25 min, 98-10% B; 25-30 min, […]; post-run 1 min.

The test system of a further experiment is MPK3/6. In words: Western-blot analysis of MPK3/6 phosphorylation. The following applies: 100 μM, 5 mins after treatment, Col-0 plants. It counts as in vivo, Arabidopsis thaliana. How it is done: FIG. 10d illustrates early immunohistochemical quantification or Western-blot analysis of the MPK3/6 phosphorylation after the indicated treatments. […] Leaves were collected 5 mins after treatment, immediately frozen in liquid nitrogen, and stored at −80° C. for analysis. […] The separated proteins were transferred on a 0.45-μm Immobilon-PPVDF membrane (Millipore). Blocking was performed in TBST containing 5% non-fat dry milk, and blots were incubated overnight at 4° C. with specific antibodies (anti-AtMPK6 and anti-Phospho-p44/42 MPK (Thr202/Tyr204)), washed in TBST, and incubated with the secondary antibody anti-Rabbit IgG conjugated with horseradish peroxidase (HRP) enzyme diluted to 1/10,000. The chemiluminescent detection of HRP was performed withClarity™Western ECL Substrate and ChemiDoc™MP Imaging System.

Consider `OC[C@H]1O[C@@H](O[C@H]2[C@H](O)[C@@H](O)[C@H](O)O[C@@H]2CO)[C@H](O)[C@@H](O)[C@@H]1O` [Cellobiose, β-D-glucopyranosyl(1→4)D-glucopyranose], for which the camalexin level with camalexin worked out at 3.7 ± 1.8 ng/g. The “Early MPK3/6 phosphorylation” value in the experiment with MPK3/6 is “no phosphorylation was observed”.

The values are drawn from patent US12628822B2, “Plant pathogen defence elicitors” (UNIVERSITÉ LIBRE DE BRUXELLES, priority 2020, dated 2026).
